From patent publication US10144736B2 (Gilead Sciences, Inc., priority 2006, dated 2018)
Where two headings read alike, the source gives them in different places.

How the values were obtained:
Huh-7 HCV replicon cells = assay: CC50 assay (CellTiter-Glo) in Huh-7 HCV replicon cells; format: cell-based, human; conditions: 3 days incubation, 50% cytostatic concentration
Protocol: (§1) The anti HCV activity of specifically substituted pteridine derivatives was tested in a human hepatoma Huh-7 cell line harbouring a HCV replicon. The assay comprised the following steps:
(§2) Step 1: compound preparation and serial dilution involved the following alternatives, depending upon the water solubility of pteridine derivative being tested:
(§3) • 1. with respect to water soluble pteridine derivatives, 500 μL of solution in cell media (DMEM, 10% FBS, P/S, L-Glutamine) was prepared with a concentration that is twice the concentration of the starting final serial dilution concentration. 150 μL of the solution was added to the pre-specified wells in column 1 of a 96-well cell culture plate (PerkinElmer, white plate, cat. #6005181, for EC50 assay; black plate, cat. #6005182 for CC50 assay). The rest of the plate, i.e. columns 2-12, was filled with 100 μL of cell media. The plate was then placed on a Precision 2000 Workstation in order to start serial dilution. Pteridine compounds were diluted three times each step from column 1 to column 10. Column 11 was used as a blank control (no pteridine compound added). • 2. With respect to poorly water soluble pteridine derivatives, DMSO was used as a solvent, and serial dilution was performed in 50% DMSO in water, in a 384-well plate. A solution containing the relevant compound at 100-fold the concentration of the starting final serial dilution concentration was prepared in 50% DMSO in water and added to the pre-specified wells in column 1 of a polypropylene 384-well plate. This plate was then placed on a Precision 2000 Workstation in order to start serial dilution. After serial dilution, 2 μL of the solution was transferred from the 384-well plate to a 96-well cell culture plate containing 100 μL of cell media on a Biomek FX Workstation. The DMSO concentration in the final assay condition was 0.5% after cells have been added to the plate and the total volume in each well was brought to 200 μL. Step 2: to each well of the serial dilution plate prepared in step 1, 100 μL of cell media containing 6000 suspended Huh-7 HCV replicon cells was added with a Multidrop workstation. Plates were incubated for 3 days at 37° C. with 5% CO2. Step 3: detection: • 1) with respect to the EC50 assay, the media in a 96-well cell culture plate was aspirated with a Biotek EL405 plate-washer. A volume of 200 μL of a solution containing a 1:1 mixture of a cell-lysis buffer (commercially available from Promega, Luciferase Cell Culture Lysis 5X Reagent, cat. #E1531) and a luciferase substrate solution (commercially available from Promega, Luciferase Assay, cat. #E4550) was added to each well of the plate with Multidrop. The plate was incubated for 30 minutes at room temperature before the luminescence signal was measured with a TopCount plate-reader. • 2) with respect to the CC50 assay, 100 μL of a pre-mixed CellTiter-Glo (commercially available from Promega, cat. #G7572) solution was added directly to the cell culture in each well of the plate and the luminescence signal was measured with a TopCount plate-reader after 10 minutes of incubation at room temperature.
(§4) Results are expressed by the following data: • the 50% effective concentration (EC50), i.e. the concentration that protects 50% of the cell monolayer from virus-induced cythopathic effect. • the 50% cytostatic concentration (CC50), i.e. the concentration that results in 50% inhibition of cell growth.

HCV replicon = assay: Anti-HCV replicon assay (EC50, luciferase readout); format: cell-based, hepatitis C virus; conditions: human hepatoma Huh-7 cell line harbouring a HCV replicon, 3 days incubation, luciferase signal
Protocol: as §1, §2, §3, §4

[1] = CC50 assay (CellTiter-Glo) in Huh-7 HCV replicon cells; format: cell-based, human; conditions: human, 3 days incubation, 50% cytostatic concentration
Protocol: as §1, §2, §3, §4

[2] = Hepatitis C virus, 72 h, read-out: EC50

Structure (SMILES)	CC50 at 3 days [1] [µM]	EC50 (HCV replicon; [2]) [µM]	also measured
Nc1nc(N2CCOCC2)c2nc(-c3ccc(OC(F)(F)F)cc3)cnc2n1 [Example 86]			CC50 (Huh-7 HCV replicon cells): 10 to 20 µM; EC50 (HCV replicon; read-out: EC50): 0.3 to 1 µM
Nc1nc(N2CCOCC2)c2nc(-c3cccnc3)cnc2n1 [Example 108, 4-morpholino-6-(pyridin-3-yl)pteridin-2-ylamine]	10 to 20	0.3 to 1	
Nc1nc(N2CCOCC2)c2nc(-c3cccnc3F)cnc2n1 [Example 109, 6-(2-fluoropyridin-3-yl)-4-morpholino-pteridin-2-ylamine]	10 to 20		EC50 (HCV replicon; Hepatitis C virus, Huh-7, 72 h): 1 to 10 µM
Nc1nc(N2CCOCC2)c2nc(-c3ccsc3)cnc2n1 [Example 110, 4-morpholino-6-(thiophen-3-yl)pteridin-2-ylamine]	> 20	1 to 10	
Nc1nc(N2CCOCC2)c2nc(-c3ccoc3)cnc2n1 [Example 111, 6-(furan-3-yl)4-morpholinopteridin-2-ylamine]	> 20		EC50 (HCV replicon; Hepatitis C virus, Huh-7, 72 h): 1 to 10 µM
Nc1nc(N2CCOCC2)c2nc(-c3ccn[nH]3)cnc2n1 [Example 112, 4-morpholino-6-(1H-pyrazol-5-yl)pteridin-2-ylamine]	> 20	1 to 10	
Nc1nc(N2CCOCC2)c2nc(-c3cccc(F)c3F)cnc2n1 [Example 113, 6-(2,3-difluorophenyl)-4-morpholino-pteridin-2-ylamine]			CC50 (Huh-7 HCV replicon cells): > 20 µM; EC50 (HCV replicon): 1 to 10 µM
CNC(=O)c1ccc(-c2cnc3nc(N)nc(N4CCOCC4)c3n2)cc1 [Example 114, 4-(2-amino-4-morpholinopteridin-6-yl)-N-methylbenzamide]	> 20	1 to 10	
Cc1cc(F)ccc1-c1cnc2nc(N)nc(N3CCOCC3)c2n1 [Example 120, 6-(4-fluoro-2-methylphenyl)-4-morpholinopteridin-2-ylamine]	10 to 20	1 to 10	
Nc1nc(N2CCOCC2)c2nc(-c3ccc(C(F)(F)F)cc3Cl)cnc2n1 [Example 121, 6-(2-chloro-4-(trifluoromethyl)phenyl)-4-morpholinopteridin-2-ylamine]	10 to 20	1 to 10	
Nc1nc(N2CCOCC2)c2nc(-c3cc4ccccc4s3)cnc2n1 [Example 123, 6-(benzo[b]thiophen-2-yl)-4-morpholinopteridin-2-ylamine]	< 10		EC50 (HCV replicon; Hepatitis C virus, Huh-7, 72 h): 0.3 to 1 µM
CCOc1cccc(-c2cnc3nc(N)nc(N4CCOCC4)c3n2)c1 [Example 126, 6-(3-ethoxyphenyl)-4-morpholinopteridin-2-ylamine]	10 to 20	1 to 10	
Nc1nc(N2CCOCC2)c2nc(-c3ccc(Cl)s3)cnc2n1 [Example 127]	< 10		EC50 (HCV replicon; Hepatitis C virus, Huh-7, in Homo sapiens, 72 h): 0.3 to 1 µM
COC(=O)Nc1ccc(-c2cnc3nc(N)nc(N4CCOCC4)c3n2)cc1 [Example 129, methyl 4-(2-amino-4-morpholinopteridin-6-yl)phenylcarbamate]	< 10	< 0.3	
COc1ccc(-c2cnc3nc(N)nc(N4CCOCC4)c3n2)cn1 [Example 130, 6-(6-methoxypyridin-3-yl)-4-morpholinopteridin-2-ylamine]	> 20	1 to 10	
Nc1nc(N2CCOCC2)c2nc(-c3cc4ccccc4o3)cnc2n1 [Example 133, 6-(benzofuran-2-yl)-4-morpholinopteridin-2-ylamine]	> 20	0.3 to 1	

Structure (SMILES)	CC50 at 3 days [1] [µM]	EC50 (HCV replicon; [2]) [µM]	also measured
Nc1nc(N2CCOCC2)c2nc(-c3ccc4c(c3)CC(=O)N4)cnc2n1 [Example 136, 5-(2-amino-4-morpholinopteridin-6-yl)indolin-2-one]	10 to 20	1 to 10	
CC(C)C(=O)Nc1ccc(-c2cnc3nc(N)nc(N4CCOCC4)c3n2)cc1 [Example 137, N-(4-(2-amino-4-morpholinopteridin-6-yl)phenyl)isobutyramide]	10 to 20	< 0.3	
CC(C)(C)C(=O)Nc1ccc(-c2cnc3nc(N)nc(N4CCOCC4)c3n2)cc1 [Example 138, N-(4-(2-amino-4-morpholinopteridin-6-yl)phenyl)pivalamide]	10 to 20	1 to 10	
C[C@H](NC(=O)OC(C)(C)C)C(=O)Nc1ccc(-c2cnc3nc(N)nc(N4CCOCC4)c3n2)cc1 [Example 140, (S)-tert-butyl 1-(4-(2-amino-4-morpholinopteridin-6-yl)phenylamino)-1-oxopropan-2-ylcarbamate]	< 10	1 to 10	
Nc1nc(N2CCOCC2)c2nc(-c3ccc(NC(=O)C4CC4)cc3)cnc2n1 [Example 142, Cyclopropane carboxylic acid[4-(2-amino-4-morpholin-4-yl-pteridin-6-yl)-phenyl]-amide]			CC50 (Huh-7 HCV replicon cells): < 10 µM; EC50 (HCV replicon; read-out: EC50): 0.3 to 1 µM
Nc1nc(N)c2nc(-c3cccc(F)c3F)cnc2n1 [Example 143, 6-(2,3-difluoro-phenyl)-pteridine-2,4-diamine]	10 to 20	1 to 10	
Nc1nc(N2CCOCC2)c2nc(-c3ccc(NC(=O)[C@@H](N)CO)cc3)cnc2n1 [Example 144, (S)-2-amino-N-(4-(2-amino-4-morpholinopteridin-6-yl)phenyl)-3-hydroxypropanamide]	> 20	1 to 10	
C[C@H](N)C(=O)Nc1ccc(-c2cnc3nc(N)nc(N4CCOCC4)c3n2)cc1 [Example 145, (S)-2-amino-N-(4-(2-amino-4-morpholinopteridin-6-yl)phenyl)-propanamide]	> 20	0.3 to 1	
COc1nc(N)nc2ncc(-c3ccc(F)cc3)nc12 [Example 149, 6-(4-Fluorophenyl)-4-methoxy-pteridin-2-ylamine]	> 20	0.3 to 1	
CC(C)Oc1nc(N)nc2ncc(-c3ccc(F)cc3)nc12 [Example 150, 6-(4-Fluorophenyl)-4-isopropoxy-pteridin-2-ylamine]	> 20	< 0.3	
CCCCOc1nc(N)nc2ncc(-c3ccc(F)cc3)nc12 [Example 152, 4-Butoxy-6-(4-fluorophenyl)-pteridin-2-ylamine]	> 20	1 to 10	
CC(C)(O)CCOc1nc(N)nc2ncc(-c3ccc(F)cc3)nc12 [Example 154, 4-[2-Amino-6-(4-fluorophenyl)-pteridin-4-yloxy]-2-methyl-butan-2-ol]	> 20		EC50 (HCV replicon; Hepatitis C virus, Huh-7, 72 h): 1 to 10 µM
Nc1nc(OCC2CC2)c2nc(-c3ccc(F)cc3)cnc2n1 [Example 157, 4-Cyclopropylmethoxy-6-(4-fluorophenyl)-pteridin-2-ylamine]	> 20	1 to 10	
CCCOc1nc(N)nc2ncc(-c3ccc(F)cc3)nc12 [Example 159, 6-(4-Fluorophenyl)-4-propoxy-pteridin-2-ylamine]	> 20	1 to 10	
CCSc1nc(N)nc2ncc(-c3ccc(F)cc3)nc12 [Example 164, 4-ethylthio-6-(4-fluorophenyl)-pteridin-2-ylamine]	> 20	0.3 to 1	
